Measurements published in ChEMBL document CHEMBL1144961, “Identification of a novel antiangiogenic agent; 4-(N-imidazol-2-ylmethyl)amino benzopyran analogues” (Bioorg Med Chem Lett, 2003).
Active and inactive are the calls of the source. The calls are words filed in the database; no cut-off is given here.

Experiments:
Homo sapiens [1] = species: Homo sapiens; experiment: Inhibitory effect on (HUVEC) human umbilical vein endothelial cell tube formation at a uM; not assayed; assay type: functional
Mus musculus [2] = experiment: Antitumor efficacy against A549 human non -small cell lung carcinoma was tested in nude mice xenografts at 50 mg/kg on 14th day (i.p.); assay type: functional; details: route intraperitoneal
Mus musculus [3] = experiment: Antitumor efficacy against A549 human non -small cell lung carcinoma was tested in nude mice xenografts at 50 mg/kg on 25th day (i.p.); assay type: functional; details: route intraperitoneal
Mus musculus [4] = experiment: Antitumor efficacy against A549 human non -small cell lung carcinoma was tested in nude mice xenografts at 50 mg/kg on 35th day (i.p.); assay type: functional; details: route intraperitoneal
Mus musculus [5] = experiment: Antitumor efficacy against A549 human non -small cell lung carcinoma was tested in nude mice xenografts at 50 mg/kg on 45th day (i.p.); assay type: functional; details: route intraperitoneal
Mus musculus [6] = experiment: Antitumor efficacy against A549 human non -small cell lung carcinoma was tested in nude mice xenografts at 50 mg/kg on 61th day (i.p.); assay type: functional; details: route intraperitoneal
Rattus norvegicus [7] = species: Rattus norvegicus; experiment: Vasorelaxant potency was measured by inhibition of […]-contracted rat aorta; assay type: functional
Rattus norvegicus [8] = species: Rattus norvegicus; experiment: In vitro cardioprotective effect was evaluated by measuring the contractile function (LVDRxHR) at a concentration of 10 uM; assay type: functional, Heart
Rattus norvegicus [9] = species: Rattus norvegicus; experiment: In vitro cardioprotective effect was evaluated by measuring the contractile function LDH at a concentration of 10 uM;not assayed; assay type: functional; details: Heart
Rattus norvegicus [10] = species: Rattus norvegicus; experiment: In vitro cardioprotective effect was evaluated by measuring the contractile function EDP at a concentration of 10 uM; assay type: functional, Heart
Rattus norvegicus [11] = experiment: In vivo anti-infarction effect by measuring the ratio of myocardial infarct zone to area at risk (IZ/AAR) in ischemic myocardium damage rat model at 0.3 mg/Kg;not assayed; assay type: functional, organism-based
Rattus norvegicus [12] = species: Rattus norvegicus; experiment: In vitro cardioprotective effect was evaluated by measuring the contractile function TTC at a concentration of 10 uM; assay type: functional, Heart
Mus musculus [13] = experiment: Antitumor efficacy against A549 human non -small cell lung carcinoma was tested in nude mice xenografts at 50 mg/kg on 1st day (i.p.); assay type: functional; details: route intraperitoneal
Homo sapiens [14] = species: Homo sapiens; experiment: Inhibitory effect on (HUVEC) human umbilical vein endothelial cell tube formation at a uM; ++ significant inhibition; assay type: functional
Rattus norvegicus [15] = species: Rattus norvegicus; experiment: In vitro cardioprotective effect was evaluated by measuring the contractile function LDH at a concentration of 10 uM; assay type: functional, Heart
Rattus norvegicus [16] = experiment: In vivo anti-infarction effect by measuring the ratio of myocardial infarct zone to area at risk (IZ/AAR) in ischemic myocardium damage rat model at 0.3 mg/Kg; assay type: functional

COc1ccc(N(Cc2ncc[nH]2)[C@H]2c3cc(N)ccc3O[C@](C)(C(OC)OC)[C@@H]2O)cc1
inhibition (Homo sapiens [1]): inactive

COC(OC)[C@]1(C)Oc2ccc(N)cc2[C@H](N(Cc2ncc[nH]2)c2ccc(Cl)cc2)[C@H]1O
inhibition (Homo sapiens [1]): inactive

COC(OC)[C@@]1(C)Oc2ccc(N)cc2[C@H](N(Cc2ncc[nH]2)c2ccc(OC(F)(F)F)cc2)[C@H]1O
inhibition (Homo sapiens [1]): inactive

COC(OC)[C@]1(C)Oc2ccc([N+](=O)[O-])cc2[C@@H](N(Cc2ncc[nH]2)c2ccc(Br)cc2)[C@@H]1O
inhibition (Homo sapiens [1]): inactive

COC(OC)[C@]1(C)Oc2ccc(N)cc2[C@@H](N(Cc2ncc[nH]2)c2ccc(Cl)cc2)[C@@H]1O
Body weight (Mus musculus [2]): 25.42 g
inhibition in vivo at 50 mg/kg (Mus musculus [3]; A549, ip): 39.7%
Body weight (Mus musculus [3]): 26.17 g
Tumor volume (Mus musculus [3]): 92.2 mm**3
inhibition in vivo at 50 mg/kg (Mus musculus [4]; A549, ip): 39.5%
Body weight (Mus musculus [4]): 27.1 g
Tumor volume (Mus musculus [4]): 186.8 mm**3
inhibition in vivo at 50 mg/kg (Mus musculus [5]; A549, ip): 49.5%
Tumor volume (Mus musculus [5]): 244.3 mm**3
inhibition in vivo at 50 mg/kg (Mus musculus [6]; A549, ip): 52.2%
Tumor volume (Mus musculus [6]): 494.8 mm**3
IC50 (Rattus norvegicus [7]): > 30 µM
LV DRxHR (Rattus norvegicus [8]): 19.3%
LDH (Rattus norvegicus [9]): inactive
EDP (Rattus norvegicus [10]): 62.3 mmHg
IZ/AAR / AAR/LV (Rattus norvegicus [11]): inactive
TTC (Rattus norvegicus [12]): 23.5 min
Body weight (Mus musculus [13]): 22.3 g

COC(OC)[C@@]1(C)Oc2ccc(N)cc2[C@@H](N(Cc2ncc[nH]2)c2ccc(Cl)cc2)[C@@H]1O
inhibition (Homo sapiens [14]): Significant inhibition

COC(OC)[C@]1(C)Oc2ccc([N+](=O)[O-])cc2[C@@H](N(Cc2ncc[nH]2)c2ccc(Cl)cc2)[C@@H]1O
inhibition (Homo sapiens [14]): Significant inhibition

COC(OC)[C@@]1(C)Oc2ccc(N)cc2[C@H](N(Cc2ncc[nH]2)c2ccc(Cl)cc2)[C@H]1O
inhibition (Homo sapiens [14]): Significant inhibition

COC(OC)[C@]1(C)Oc2ccc([N+](=O)[O-])cc2[C@@H](N(Cc2ncc[nH]2)c2ccc(OC(F)(F)F)cc2)[C@@H]1O
inhibition (Homo sapiens [1]): inactive

COC(OC)[C@]1(C)Oc2ccc([N+](=O)[O-])cc2[C@@H](N(Cc2ncc[nH]2)c2ccc(C(F)(F)F)cc2)[C@@H]1O
inhibition (Homo sapiens [1]): inactive

COC(OC)[C@@]1(C)Oc2ccc([N+](=O)[O-])cc2[C@@H](N(Cc2ncc[nH]2)c2ccc(Cl)cc2)[C@@H]1O
inhibition (Homo sapiens [14]): Significant inhibition
IC50 (Rattus norvegicus [7]): > 30 µM
LV DRxHR (Rattus norvegicus [8]): 55.7%
LDH (Rattus norvegicus [15]): 10.7 U g-1
EDP (Rattus norvegicus [10]): 14 mmHg
IZ/AAR / AAR/LV (Rattus norvegicus [16]): 41%
TTC (Rattus norvegicus [12]): 20.3 min
